“Also recorded” adds a separate entry of the source. Each block holds one molecule with its values, some of them ahead of it.
How the values were obtained:
[1] = tested on: Trx/TrxR system in human cancer cells; conditions: cited from earlier work
[2] = biological target: T1, bovine TrxR (Bos taurus, UniProt O62768); test: TrxR NADPH oxidation assay without Trx (Reaction A); type: biochemical; conditions: TrxR alone + NADPH, no Trx; disulfide 0.5 mM
T1 construct: purchased American Diagnostica
T1 sequence (O62768 1-499): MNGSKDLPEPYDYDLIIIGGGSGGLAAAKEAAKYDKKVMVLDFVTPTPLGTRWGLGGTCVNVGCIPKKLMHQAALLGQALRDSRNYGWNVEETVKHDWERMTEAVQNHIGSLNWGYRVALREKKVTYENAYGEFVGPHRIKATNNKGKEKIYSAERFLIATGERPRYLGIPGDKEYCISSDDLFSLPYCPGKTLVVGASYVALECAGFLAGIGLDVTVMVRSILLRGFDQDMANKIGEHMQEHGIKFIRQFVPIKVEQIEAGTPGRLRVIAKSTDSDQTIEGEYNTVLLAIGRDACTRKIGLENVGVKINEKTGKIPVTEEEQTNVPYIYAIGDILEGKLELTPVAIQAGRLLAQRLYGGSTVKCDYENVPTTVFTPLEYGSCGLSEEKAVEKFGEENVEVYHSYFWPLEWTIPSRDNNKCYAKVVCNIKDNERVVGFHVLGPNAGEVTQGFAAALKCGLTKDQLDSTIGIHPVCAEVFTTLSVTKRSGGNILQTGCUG

[3] = biological target: T2, TrxR/Trx system (Homo sapiens, UniProt P10599); test: TrxR/Trx NADPH oxidation assay; type: biochemical; conditions: increasing concentrations of test substance
T2 construct: purchased Sigma (Trx); American Diagnostica (bovine TrxR)
T2 sequence (P10599 1-105): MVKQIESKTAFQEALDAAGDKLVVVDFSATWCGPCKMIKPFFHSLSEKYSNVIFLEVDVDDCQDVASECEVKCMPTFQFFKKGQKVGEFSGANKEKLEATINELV
From the text: (Note: error bars are small and may be obscured by the symbols). […] (Note: error bars were omitted but assays were run in quadruplicate with typical errors of 5-8% between individual replicates). […] Panel D: Initial velocity reaction rates corresponding to progress curves shown in Panel C. With time, Trx-mesna and Trx-GSH are converted back to apo-Trx by Trx reductase (see also, FIG. 69, Panel E).

[4] = tested on: mammalian thioredoxin reductase (TrxR); conditions: cited from earlier work
[5] = read-out: Cmax for mesna; 41 g/m^2 Tavocept; cited from earlier work
[6] = tested on: some cell lines; test: In vitro cytotoxicity of mesna; conditions: ≦400 μM; unpublished data
[7] = tested on: bovine brain microtubule protein (α-/β-tubulin); test: Microtubule protein polymerization assay (OD350); type: biochemical; conditions: for effect on GTP promoted microtubule protein polymerization: mesna, even at 10 mM
[8] = tested on: non-small cell lung cancer; conditions: patients greater than or equal to 65 years, carboplatin and paclitaxel chemotherapy; cited from earlier work
[9] = biological target: insulin
[10] = biological target: Recombinant human thioredoxin (Trx) (human) (UniProt P10599)
[11] = biological target: T3, human Trx with rat liver TrxR (Homo sapiens, UniProt P10599); test: TrxR/Trx insulin disulfide reduction assay (NADPH oxidation 340 nm, insulin B chain precipitation 650 nm); type: biochemical; conditions: modified Trx purified from free Tavocept or glutathione disulfide
T3 sequence (P10599 1-105): T2 sequence (P10599 1-105)

Molecule: CCOC(=O)NC1=C(N2CC2)C(=O)C(NC(=O)OCC)=C(N2CC2)C1=O [Diaziquone]
Inhibition of Trx/TrxR system and cellular ribonucleotide reductase activity [1]: inhibit the Trx/TrxR system resulting in a concentration-dependent inhibition of cellular ribonucleotide reductase activity

Molecule: N[C@@H](CCC(=O)N[C@@H](CSSCCS(=O)(=O)O)C(=O)NCC(=O)O)C(=O)O [MSSG, mesna-glutathione disulfide]
NADPH Oxidation, Reaction A [2]: 0.3 ± 0.02 nmol/min/mL
NADPH oxidation by TrxR and Trx [3]: increases

Molecule: NC(CCSSCCS(=O)(=O)O)C(=O)O (centres unmarked) [MSSH, mesna-homocysteine disulfide]
NADPH Oxidation, Reaction A [2]: 0.0 ± 0.03 nmol/min/mL
NADPH oxidation by TrxR and Trx [3]: increases

Molecule: COc1cccc2c1C(=O)c1c(O)c3c(c(O)c1C2=O)C[C@@](O)(C(=O)CO)C[C@@H]3O[C@H]1C[C@H](N)[C@H](O)[C@H](C)O1 [doxorubicin]
Inhibition of TrxR [4]: not inhibitors of TrxR
Inhibition of Trx/TrxR system and cellular ribonucleotide reductase activity [1]: inhibit the Trx/TrxR system resulting in a concentration-dependent inhibition of cellular ribonucleotide reductase activity

Molecule: O=S(=O)([O-])CCS.[Na+] [mesna, 2-mercapto ethane sulfonate]
Cmax [5]: ~323 µM
Cytotoxicity in vitro [6]: can be cytotoxic to some cell lines
effect alone on microtubule protein polymerization ([7]; in the absence of monoaquocisplatin): neither mesna nor cysteine alone (in the absence of monoaquocisplatin) had any effect; also recorded: no detectable effect
effect on paclitaxel-induced hyperpolymerization of MTP ([7]; mesna alone): no detectable effect
effect on GTP promoted microtubule protein polymerization [7]: did not affect microtubule protein polymerization in an appreciable manner
effect on GTP promoted microtubule protein polymerization ([7]; listed as Mesna): does not affect
protection against monoaquocisplatin-induced loss of microtubule protein polymerization ([7]; preincubated with monoaquocisplatin (36 μM), mesna or cysteine 200 μM): prevented the monoaquocisplatin-induced loss; also recorded: able to protect

Molecule: Avastin: Avastin (bevacizumab)
Survival advantage [8]: did not confer a survival advantage

NADPH Oxidation (nmoles/min/mL) (nmoles/min/mL) [9]: 18
Molecule: Recombinant human thioredoxin (Trx) (from UniProt P10599) (enzyme)

rate of NADPH oxidation at 340 nm in the Prx assay (% reduction in rate) [10]: 43
Molecule: Tavocept-modified Prx (Prx-mesna) (from UniProt Q06830) (enzyme)

NADPH Oxidation (nmoles/min/mL) (nmoles/min/mL) [9]: 0.3
Molecule: bovine Trx reductase (TrxR) (from UniProt O62768) (enzyme)

Effect on initial velocity of insulin reduction relative to apo-Trx [11]: inhibitory effect
B1: Trx-mesna: Trx covalently modified by a Tavocept-derived mesna moiety (protein)
chain: T2 sequence (P10599 1-105)
modifications: Tavocept-derived mesna mixed disulfide on Cys73 and on Cys62 or Cys69 (mass spectroscopy)
notes: Trx covalently modified by a Tavocept-derived mesna moiety

Effect on initial velocity of insulin reduction relative to apo-Trx [11]: a clear effect on initial velocity
B2: Trx-GSH: Trx modified by glutathione after incubation with glutathione disulfide (protein)
chain: T2 sequence (P10599 1-105)
modifications: glutathionylated (cysteine-73 in the control reactions with glutathione)
notes: Trx modified by glutathione after incubation with glutathione disulfide

Reference: patent US20170007561A1, “CONTEMPORANEOUS, HETEROGENEOUSLY-ORIENTED, MULTI-TARGETED THERAPEUTIC MODIFICATION AND/OR MODULATION OF DISEASE BY ADMINISTRATION OF SULFUR-CONTAINING, AMINO ACID-SPECIFIC SMALL MOLECULES” (BioNumerik Pharmaceuticals, Inc., priority 2014, published 2017)
